Results as given in patent US8946124B2, “Substituted 3-(biphenyl-3-yl)-8,8-difluoro-4-hydroxy-1-azaspiro[4.5]dec-3-en-2-ones for therapy and halogen-substituted spirocyclic ketoenols” (Bayer Intellectual Property GmbH, priority 2011, dated 2015).

Tests used:
[1] = Octanol/water distribution coefficient (log P/D), isocratic HPLC method; format: physicochemical; details: pH 7.4; mean (range, n); read-out: logP/D pH 7.4
Description: The distribution coefficient octanol/water P or D is a key parameter for estimating membrane penetration and permeability. It is defined as the ratio of the equilibrium concentrations of a substance in the two-phase system octanol/water.
[formula] P=partition D=distribution c(octanol)=concentration of the substance in the octanol phase c(water)=concentration of the substance in the aqueous phase
It is usually stated in form of the decadic logarithm (log P or log D).
log P describes the distribution behavior of a substance exclusively present in its neutral form. logD describes the distribution behavior of a substance at a certain pH; depending on the ionisation constant pKa of the substance, some of the substance may be present in ionic form, and some in neutral form.
The log P/D of the active compounds was determined using an isocratic HPLC method (HPLC=high performance liquid chromatography) (literature: OECD Guideline for Testing of Chemicals No. 117). The method is based on the correlation of the HPLC retention time of the test substance to that of reference substances with known distribution coefficients.
The test substance was employed as a 10 mM solution in DMSO (DMSO=dimethyl sulfoxide). 10 μl of this solution were made up to 100 μl with a methanol/water mixture in a ratio of 7+3.
The nine reference substances were dissolved individually in methanol. 100 μl each of the stock solutions were added to an HPLC vial and mixed with 300 μl of water.
A formamide solution was used to determine the hold-up time. To this end, 7 mg of formamide were dissolved in 10 ml of methanol. 100 μl of this stock solution were mixed with 500 μl of methanol and 200 μl of water.
All solutions were chromatographed using a flow rate of 1.00 ml/min.
Injection Protocol: formamide, references, test substance 1, test substance 2, . . . , formamide, references.
Evaluation of the retention times was carried out in a diode array detector (DAD) at 200-400 nm. Via the molecular mass, the identity of the test substance was checked using the downstream mass spectrometer.
The HPLC run was evaluated using the Waters software Masslynx 4.1.
The log P/D values were calculated using the software “POW Determination” (proprietary development).

Myzus persicae = assay: Myzus test (MYZUPE spray treatment); format: in vivo; details: 500 g/ha, after 6 days
Phaedon cochleariae = assay: Phaedon test (PHAECO spray treatment); details: 500 g/ha, after 7 days
Tetranychus urticae = assay: Tetranychus test, OP-resistant (TETRUR spray treatment); format: in vivo; details: after 6 days
Experimental: (§1) Solvents: 78.0 parts by weight of acetone
After 6 days, the effect in % is determined.
Tetranychus Test, OP-Resistant (TETRUR Spray Treatment)

human plasma protein = assay: Plasma protein binding by equilibrium dialysis; format: in vitro ADME
Experimental: (§2) The binding of test substances to plasma proteins is determined by equilibrium dialysis by means of the Ht-dialysis apparatus (96-well) made of Teflon and a semipermeable membrane (regenerated cellulose, MWCO 12-14K). This separates 150 μl each of a plasma side and a buffer side (50 mM phosphate buffer). The test substance is added in 2 concentrations (usually 3 and 0.3 μM) to the plasma side and binds to plasma proteins. The unbound fraction of the test substance passes through the membrane and is distributed on either side until equilibrium is established (after approx. 6-8 h at 37° C.). The substance concentration on the buffer side and the plasma side is determined by LC-MS analysis. For this, both sides are brought by dilution with buffer or plasma to the same matrix (10% plasma) and then precipitated with methanol. The free (unbound) fraction (fu) is calculated from the quotient of the buffer and plasma concentration. Stability tests and recovery tests are run concurrently as controls. In addition, the substance in buffer is dialysed against buffer, to check the nonspecific binding to apparatus and membrane and establishment of equilibrium. Because during incubation the osmotic pressure of the plasma proteins leads to dilution of the plasma (volume shift), this possible error is determined by weighing blank plasma samples and is included in the calculation of fu. Establishment of equilibrium and plasma stability should have a value not lower than 80% and the recovery should be at least 30%. A free fraction of <1% is regarded as high, between 1 and 10% as moderate and >10% as low plasma protein binding.

plasma proteins of rat = assay: Plasma protein binding by equilibrium dialysis; format: in vitro ADME
Experimental: as §2

mouse plasma protein = assay: Plasma protein binding by equilibrium dialysis; format: in vitro ADME
Experimental: as §2

Spodoptera frugiperda = Spodoptera frugiperda test (SPODFR spray treatment); format: in vivo; details: 500 g/ha, after 7 days
Description: as §1

human ACC1 = format: biochemical; details: pairwise, same substance dilution series
Meloidogyne incognita = Meloidogyne incognita test (MELGIN); format: in vivo; details: 20 ppm, after 14 days
Experimental: Solvent: 125 parts by weight of acetone
Containers are filled with sand, solution of active compound, Meloidogyne incognita egg/larvae suspension and lettuce seeds. The lettuce seeds germinate and the plants develop. On the roots, galls are formed. After 14 days, the nematicidal effect in % is determined by the formation of galls. 100% means that no galls have been found; 0% means that the number of galls on the treated plants corresponds to the untreated control.

Boophilus microplus = Boophilus microplus test (BOOPMI injection); format: in vivo; details: 20 μg/animal, after 7 days
Experimental: (§3) Solvent: dimethyl sulfoxide
To prepare an appropriate active compound formulation, 10 mg of active compound are mixed with 0.5 ml of solvent and the concentrate is diluted with solvent to the desired concentration. The solution of active compound is injected into the abdomen (Boophilus microplus), and the animals are transferred into dishes and kept in a climatized room. The activity is assessed by […] of fertile eggs.
100% means that none of the ticks has laid any fertile eggs.

Lucilia cuprina = Lucilia cuprina test (LUCICU); format: in vivo; details: 100 ppm, after 2 days
Experimental: as §3
To prepare an appropriate active compound formulation, 10 mg of active compound are mixed with 0.5 ml of dimethyl sulfoxide and the concentrate is diluted with water to the desired concentration. Vessels containing horse meat treated with the active compound preparation of the desired concentration are populated with about 20 Lucilia cuprina larvae.
After 2 days, the kill in % is determined.

Row | SMILES | chromatographic logD [1] | effect in % (aphids killed) (Myzus persicae) | effect in % (beetle larvae killed) (Phaedon cochleariae) | effect in % (spider mites killed) (Tetranychus urticae; 100 g/ha) | effect in % (caterpillars killed) (Spodoptera frugiperda) | also measured
1 | Cc1ccc(-c2ccc(Cl)c(F)c2)cc1C1=C(O)C2(CCCCC2)NC1=O [V.1-b, 3-(4′-Chloro-3′-fluoro-4-methylbiphenyl-3-yl)-4-hydroxy-1-azaspiro[4.5]dec-3-en-2-one] | 2.8 | – | – | – | – | –
2 | Cc1cc(Cl)cc(C)c1C1=C(O)C2(CCC(F)(F)CC2)NC1=O [Example I-1-a-7] | – | 100% | 100% | 100% | – | –
3 | Cc1ccc(-c2ccc(Cl)cc2)cc1C1=C(O)C2(CCCCC2)NC1=O [V.2-b, 3-(4′-Chloro-4-methylbiphenyl-3-yl)-4-hydroxy-1-azaspiro[4.5]dec-3-en-2-one, reference compound] | 2.77 | – | – | – | – | fu [%] (human) (human plasma protein): 0.36%; fu [%] (rat) (plasma proteins of rat): 0.71%; fu [%] (mouse) (mouse plasma protein): 2.81%
4 | Cc1ccc(-c2ccc(F)cc2)c(C)c1C1=C(O)C2(CCC(F)(F)CC2)OC1=O [Example I-2-a-2] | – | 100% | 100% | – | 100% | effect in % (spider mites killed) (Tetranychus urticae; 500 g/ha): 100%
5 | Cc1cc(Cl)cc(C)c1C1=C(O)C2(CC=C(F)CC2)NC1=O (centres unmarked) [Example I-1-a-13] | – | 100% | 100% | 90% | – | –
6 | CCc1cc(C)cc(C)c1C1=C(O)C2(CCC(F)(F)CC2)NC1=O [Example I-1-a-11] | – | – | – | 100% | – | –
7 | Cc1ccc(-c2ccc(F)cc2)c(C)c1C1=C(O)C2(CC=C(F)CC2)NC1=O (centres unmarked) [Example I-1-a-12] | – | 100% | 100% | – | 100% | effect in % (spider mites killed) (Tetranychus urticae; 500 g/ha): 100%
8 | Cc1ccc(-c2ccc(Cl)cc2)cc1C1=C(O)C2(CCC(F)(F)CC2)OC1=O [Example I-2-a-3] | – | 90% | 100% | – | 100% | –
9 | Cc1cc(C)c(C2=C(O)C3(CCC(F)(F)CC3)OC2=O)c(C)c1 [Example I-2-a-4] | – | 100% | 100% | – | – | –
10 | Cc1ccc(-c2ccc(Cl)c(F)c2)cc1C1=C(O)[C@]2(CC[C@H](C(F)(F)F)CC2)NC1=O [V.1-a, (5s,8s)-3-(4′-Chloro-3′-fluoro-4-methylbiphenyl-3-yl)-4-hydroxy-8-(trifluoromethyl)-1-azaspiro[4.5]dec-3-en-2-one] | 2.55 | – | – | – | – | Ratio of IC50s ACC2/ACC1 (respective measurement) (human ACC1): 8.6
11 | Cc1cc(Br)cc(C)c1C1=C(O)C2(CCC(F)(F)CC2)NC1=O [Example I-1-a-5] | – | 100% | 100% | 100% | – | –
12 | Cc1ccc(-c2ccc(Cl)cc2)c(C)c1C1=C(O)C2(CCC(F)(F)CC2)NC1=O [Example 1-5, 3-(4′-Chloro-2,4-dimethylbiphenyl-3-yl)-8,8-difluoro-4-hydroxy-1-azaspiro[4.5]dec-3-en-2-one] | – | 100% | – | 90% | – | nematicidal effect in % (formation of galls) (Meloidogyne incognita): 100%
13 | Cc1ccc(-c2ccc(Cl)cc2)cc1C1=C(O)[C@]2(CC[C@H](C(F)(F)F)CC2)NC1=O [V.2-a, (5s,8s)-3-(4′-Chloro-4-methylbiphenyl-3-yl)-4-hydroxy-8-(trifluoromethyl)-1-azaspiro[4.5]dec-3-en-2-one] | 2.23 | – | – | – | – | Ratio of IC50s ACC2/ACC1 (respective measurement) (human ACC1): 8.4
14 | Cc1ccc(-c2ccc(Cl)cc2)cc1C1=C(O)C2(CCC(F)(F)CC2)NC1=O [Example 1-2, 3-(4′-Chloro-4-methylbiphenyl-3-yl)-8,8-difluoro-4-hydroxy-1-azaspiro[4.5]dec-3-en-2-one] | 1.73 | 100% | 100% | 100% | 100% | fu [%] (human) (human plasma protein): 0.42%; fu [%] (mouse) (mouse plasma protein): 3.49%
15 | Cc1ccc(-c2ccc(F)cc2)c(C)c1C1=C(O)C2(CCC(F)(F)CC2)NC1=O [Example I-1-a-2] | – | 100% | 100% | – | 100% | effect in % (fertile eggs) (Boophilus microplus): 80%; nematicidal effect in % (formation of galls) (Meloidogyne incognita): 100%; kill in % (Lucilia cuprina): 100%; effect in % (spider mites killed) (Tetranychus urticae; 500 g/ha): 100%
16 | O=C1NC2(CCC(F)(F)CC2)C(O)=C1c1cc(-c2ccc(Cl)cc2)ccc1Cl [Example 1-4, 3-(4,4′-Dichlorobiphenyl-3-yl)-8,8-difluoro-4-hydroxy-1-azaspiro[4.5]dec-3-en-2-one] | – | – | – | – | – | Ratio of IC50s ACC2/ACC1 (respective measurement) (human ACC1): 34.0
